Experimental data reported in US9345774B2, “Topical composition comprising a film-forming polymer for delivering an active ingredient to skin” (LEO PHARMA A/S, priority 2012, dated 2016).

Assay: Chemical stability of calcipotriol in contact with container inner coating
Format: physicochemical

C=C1/C(=C\C=C2/CCC[C@]3(C)[C@@H]([C@H](C)/C=C/[C@@H](O)C4CC4)CC[C@@H]23)C[C@@H](O)C[C@@H]1O [calcipotriol]
chemical stability of calcipotriol (epoxyphenol resin inner lacquer): unacceptable chemical degradation | chemical stability of calcipotriol (polyimide-polyamide resin as inner coating): satisfactory
